Results taken from US5132291A, “Antivirals and methods for increasing the antiviral activity of AZT” (priority 1989, dated 1992).

What was measured:
Assay type in all cases: cell-based
WI-L2 cells = assay: Lymphoblast assay, effects on cell growth, WI-L2 B-cell line; conditions: AICA riboside alone, up to 500 μM
Procedure: Several lymphoblast lines were utilized in conjunction with varying doses of antiviral agents to determine their effects on cell growth. In this method a daily cell count over a period of time, post-addition of antiviral compounds, can be compared with the normal cell growth curve.
Two representative T-cell lines, SupT-1 and CEM, and a B-cell line, WI-L2, were grown to mid-log phase 5×10^5 cells/ml in 50 ml of RPMI 1640 (Irvine Scientific) supplemented with 10% heat-inactivated fetal calf serum (Gemini-Bioproducts) and 1% glutamine (Gibco) to standardize seeding conditions and to assure a population of logarithmically growing cells.
An appropriate number cf T-25 flasks (Corning) were seeded with evenly suspended cells at 0.5×10^5 cells/ml in 20 ml of fresh growth media. Including a control condition, each set of flasks was treated with a dose range of antiviral compound for each cell line. Each dose condition was repeated in triplicate. All flasks were incubated for 5 days at 37° C. in a 5% CO2 incubator.
Every 24 hours for 5 days, three 0.2 ml samples of each flask were diluted in 9.8 ml of isoton (Fisher Scientific) and counted on a cell counter (Coulter Co.). The average of each flask was recorded, and the average of each triplicate antiviral does was then averaged and recorded.

[1] = tested on: BAG vector pseudotyped by MA (amphotrophic murine leukemia virus); assay: U937/BAG+MA colony resistance assay titered on 208F rat fibroblasts; conditions: 500 μM AICA riboside
Procedure: A second, similar assay system was utilized in which a human macrophage line (U937) carrying the BAG retroviral vector construct (having neomycin resistance and beta-galactosidase marker genes), Cepko, PNAS, Vol. 84, p. 156-160 (1987), was infected with MA (amphotrophic MLV [murine leukemia virus]). MA was used to pseudotype the replication-defective BAG vector, which was then titered on 208F cells. According to this assay, the results of which are shown in FIG. 1c, 0.01 μM AZT and 500 μM AICA riboside were both effective against murine retroviruses. […]
In this colony-forming bioassay for the characterization of antiviral compounds against retroviruses, a replication-defective retroviral vector construct having the ability to confer neomycin-resistance (U937/BAG or N2) is psuedotyped, infects a single cell, and under neomycin selection, allows the recipient cell to form a colony. Since each infection yields a neomycin-resistant cell capable of producing a discrete group of cells, colonies can be counted, resulting in a linear relationship between the number of colonies and the first order of virus concentration. […]
After drying, the plates were stained with 2 ml of 1:20 Glemsa (Sigma) for 1 hour. […] All colonies containing 50 or more cells were scored.

HIV = HIV syncitial forming assay using SupT-1 cells; conditions: AICA riboside 5 μM-500 μM
Procedure: The assay was performed following the procedure described in Example Three except that SupT-1 cells were used. Using the SupT-1 cells, the medium was not changed at day 5 post-infection and the syncitia were counted at day 5 post-infection at 40X. The results are plotted in FIGS. 5, 6(b), and 7.

With NC(=O)c1ncn([C@@H]2O[C@H](CO)[C@@H](O)[C@H]2O)c1N [AICA riboside, 5-amino-1-β-D-ribofuranosyl-imidazole-4-carboxamide] the “effect on WI-L2 (B-cell) growth” value (WI-L2 cells) was “no effect”, the “effectiveness against murine retroviruses” value [1] was “effective” and the “effectiveness against the AIDS virus (prevention of syncitial formation)” value (HIV) was “less than 100%”.
